Drawing on paper PMC8286840, “Identifying SARS-CoV-2 antiviral compounds by screening for small molecule inhibitors of Nsp3 papain-like protease” (Biochemical Journal, 2021), this text covers remaining activity for 33 compounds.

Structures can show the parent of a compound that is named as a salt. Where two headings read alike, the source gives them in different places.

The target in assay [1] is T1, SARS-CoV-2 PLpro (nsp3 1564–1878) (Severe acute respiratory syndrome coronavirus 2, UniProt P0DTD1). Kind of assay: biochemical. On the set-up: FRET-quenched peptide (Pro3) cleavage by PLpro, 10 min pre-incubation, slope over 20 min, normalised to no-compound control. The note with it: low concentration screen, read-out: % of control remaining.
In assay [2] the target is T1, SARS-CoV-2 PLpro (nsp3 1564–1878). Kind of assay: biochemical. The note with it: high concentration screen, read-out: % of control remaining. On the set-up: FRET-quenched peptide (Pro3) cleavage by PLpro, 10 min pre-incubation, slope over 20 min, normalised to no-compound control.

As to `O=C(c1ccc(F)cc1)C1CCN(CCn2c(=O)[nH]c3ccccc3c2=O)CC1` [Ketanserin], the remaining activity at 1.25 µM turned out to be 94.1% in assay [1] (Well no.=2106) and 101% in assay [1] (Well no.=6859). In addition, the remaining activity at 3.75 µM in assay [2] (Well no.=2106) turned out to be 95.2%; in assay [2] (Well no.=6859), 99%.
Consider `CC1(C)C2CCC1(C(=O)O)C(=O)C2` (stereo not drawn) [Ketopinic acid], for which the remaining activity at 1.25 µM in assay [1] (Well no.=3353) is 92.9%. For the same compound, in assay [2] (Well no.=3353), the remaining activity at 3.75 µM was found to be 96.9%.
Regarding `O=C(c1ccccc1)c1ccc2n1CCC2C(=O)O` (stereo not drawn) [Ketorolac tris salt], the remaining activity at 1.25 µM in assay [1] (Well no.=925) was 108%. Besides, in assay [2] (Well no.=925), the remaining activity at 3.75 µM was found to be 103%.
Consider `CN1CCC(=C2c3ccccc3CC(=O)c3sccc32)CC1` [Ketotifen (fumarate)], for which, in assay [1] (Well no.=7421), the remaining activity at 1.25 µM stood at 100%. Besides, the remaining activity at 3.75 µM in assay [2] (Well no.=7421) amounted to 97%.
Consider `CN1CCC(=C2c3ccccc3CC(=O)c3sccc32)CC1` [Ketotifen fumarate], for which the remaining activity at 1.25 µM in assay [1] (Well no.=1069) worked out at 101%. Further, the remaining activity at 3.75 µM in assay [2] (Well no.=1069) was determined as 95.3%.
In the case of `CN1CCC(=C2c3ccccc3CC(=O)c3sccc32)CC1` [Ketotifen], in assay [1] (Well no.=2056), the remaining activity at 1.25 µM is 108%. The remaining activity at 3.75 µM in assay [2] (Well no.=2056) came to 109%.
Take `N#CCCCSC(=N)N` [Kevetrin (hydrochloride)]: the remaining activity at 1.25 µM in assay [1] (Well no.=6250) worked out at 103%. Also, the remaining activity at 3.75 µM in assay [2] (Well no.=6250) amounted to 103%.
For the compound `COc1c2occc2c(OC)c2c(=O)cc(C)oc12` [Khellin], the remaining activity at 1.25 µM in assay [1] (Well no.=3436) turned out to be 92.2%. Moreover, in assay [2] (Well no.=3436), the remaining activity at 3.75 µM worked out at 94.1%.
Regarding `COC(=O)CCSCc1ccc(-c2onc(C)c2NC(=O)OC(C)c2ccccc2Cl)cc1` (stereo not drawn) [Ki16198], in assay [1] (Well no.=5219), the remaining activity at 1.25 µM was determined as 89.4%. Also, the remaining activity at 3.75 µM in assay [2] (Well no.=5219) was 96.1%.
Turning to `Cc1noc(-c2ccc(CSCCC(=O)O)cc2)c1NC(=O)OC(C)c1ccccc1Cl` (stereo not drawn) [Ki16425], the remaining activity at 1.25 µM in assay [1] (Well no.=7955) came out at 95.2%. The remaining activity at 3.75 µM in assay [2] (Well no.=7955) was 96.5%.
Consider `COc1cc(Oc2ccnc3cc(OC)c(OC)cc23)ccc1NC(=O)NC(C)c1nccs1` (stereo not drawn) [Ki20227], for which the remaining activity at 1.25 µM in assay [1] (Well no.=2935) amounted to 98.2%. The remaining activity at 3.75 µM in assay [2] (Well no.=2935) was found to be 102%.
Take `Cc1cc(/C=N/NC(=O)c2cc(Br)c(O)c(Br)c2)c(C)n1-c1cccc([N+](=O)[O-])c1` [Kinesore]: the remaining activity at 1.25 µM in assay [1] (Well no.=7784) came out at 93.8%. Besides, in assay [2] (Well no.=7784), the remaining activity at 3.75 µM was found to be 91.7%.
`OC[C@H]1O[C@@H](n2cnc3c(NCc4ccco4)ncnc32)[C@H](O)[C@@H]1O` [Kinetin riboside]: the remaining activity at 1.25 µM in assay [1] (Well no.=6632) is 91.8%. Further, the remaining activity at 3.75 µM in assay [2] (Well no.=6632) came to 96.7%.
On to `c1coc(CNc2ncnc3[nH]cnc23)c1` [Kinetin], for which, in assay [1] (Well no.=3358), the remaining activity at 1.25 µM is 95.6%. In assay [2] (Well no.=3358), the remaining activity at 3.75 µM came to 97.3%.
For the compound `Cc1ccc(NC(=S)NNc2c([N+](=O)[O-])cc(C(F)(F)F)cc2[N+](=O)[O-])cc1Cl` [Kobe0065], the remaining activity at 1.25 µM in assay [1] (Well no.=7436) amounted to 103%. The remaining activity at 3.75 µM in assay [2] (Well no.=7436) came to 106%.
For the compound `O=C(O)c1cc(=O)c2ccccc2[nH]1` [Kynurenic acid], the remaining activity at 1.25 µM in assay [1] (Well no.=1117) turned out to be 97.8%; in assay [1] (Well no.=7403), 99.6%. The figures for the remaining activity at 3.75 µM in assay [2] (Well no.=1117) and in assay [2] (Well no.=7403) were 99.5% and 99.4%, respectively.
As for `N[C@@H](CC(=O)O)C(=O)O` [L -Aspartic acid hemimagnesium salt hydrate], the remaining activity at 1.25 µM in assay [1] (Well no.=5897) was found to be 103%. Further, in assay [2] (Well no.=5897), the remaining activity at 3.75 µM came to 105%.
For the compound `NC[C@@H](O)c1ccc(O)c(O)c1` [L(-)-Norepinephrine bitartrate], the remaining activity at 1.25 µM in assay [1] (Well no.=58) is 102%. Also, in assay [2] (Well no.=58), the remaining activity at 3.75 µM turned out to be 99.2%.
As for `N[C@@H](CCCC(=O)O)C(=O)O` [L-2-aminoadipic acid], the remaining activity at 1.25 µM in assay [1] (Well no.=52) came to 97.1%. For the same compound, the remaining activity at 3.75 µM in assay [2] (Well no.=52) is 97.4%.
On to `COC(=O)[C@@H](N)Cc1ccc(O)c(O)c1` [L-3,4-Dihydroxyphenylalanine methyl ester hydrochloride], for which the remaining activity at 1.25 µM in assay [1] (Well no.=541) is 103%. The remaining activity at 3.75 µM in assay [2] (Well no.=541) amounted to 103%.
With `N[C@@H](Cc1ccc(O)c(O)c1)C(=O)O` [L-3,4-Dihydroxyphenylalanine], the remaining activity at 1.25 µM in assay [1] (Well no.=634) amounted to 101%. The remaining activity at 3.75 µM in assay [2] (Well no.=634) turned out to be 105%.
As to `N[C@@H](Cc1c[nH]c2ccc(O)cc12)C(=O)O` [L-5-Hydroxytryptophan], the remaining activity at 1.25 µM in assay [1] (Well no.=7409) stood at 99.9%. Further, in assay [2] (Well no.=7409), the remaining activity at 3.75 µM was found to be 104%.
As for `c1ccc(CN2CCC3(CCCc4ccccc43)CC2)cc1` [L-687,384 hydrochloride], in assay [1] (Well no.=1123), the remaining activity at 1.25 µM is 96.4%. Moreover, the remaining activity at 3.75 µM in assay [2] (Well no.=1123) was determined as 97.2%.
For the compound `Ic1ccccc1CN[C@@H]1C2CCN(CC2)[C@@H]1C(c1ccccc1)c1ccccc1` [L-703,606 oxalate], in assay [1] (Well no.=964), the remaining activity at 1.25 µM amounted to 96.7%. The remaining activity at 3.75 µM in assay [2] (Well no.=964) stood at 96%.
With `FC(F)(F)c1cc(CO[C@H]2CCCN[C@H]2c2ccccc2)cc(C(F)(F)F)c1` [L-733,060 hydrochloride], the remaining activity at 1.25 µM in assay [1] (Well no.=918) came to 99.8%. For the same compound, in assay [2] (Well no.=918), the remaining activity at 3.75 µM amounted to 103%.
On to `Clc1ccc(N2CCN(Cc3c[nH]c4ncccc34)CC2)cc1` [L-745,870 hydrochloride], for which the remaining activity at 1.25 µM in assay [1] (Well no.=1108) amounted to 92.3%. In addition, in assay [2] (Well no.=1108), the remaining activity at 3.75 µM amounted to 95.9%.
As for `Ic1ccc(N2CCN(Cc3c[nH]c4ncccc34)CC2)cc1` [L-750,667 trihydrochloride], the remaining activity at 1.25 µM in assay [1] (Well no.=774) was 102%. Moreover, the remaining activity at 3.75 µM in assay [2] (Well no.=774) amounted to 106%.
`COc1ccc(Br)cc1S(=O)(=O)NC(=O)/C=C/c1ccccc1Cc1ccc2ccccc2c1` [L-798106]: the remaining activity at 1.25 µM in assay [1] (Well no.=5661) amounted to 91.7%. Further, in assay [2] (Well no.=5661), the remaining activity at 3.75 µM is 95%.
For `C[C@H](N)C(=O)O` [L-Alanine], in assay [1] (Well no.=7749), the remaining activity at 1.25 µM worked out at 95.2%. The remaining activity at 3.75 µM in assay [2] (Well no.=7749) came to 97.6%.
For `OC[C@H](O)C(O)[C@@H](O)CO` [L-Arabinitol], the remaining activity at 1.25 µM in assay [1] (Well no.=6789) was found to be 93.2%. In assay [2] (Well no.=6789), the remaining activity at 3.75 µM stood at 93.7%.
With `N=C(N)NCCC[C@H](N)C(=O)O` [L-Arginine HCl], in assay [1] (Well no.=4987), the remaining activity at 1.25 µM turned out to be 100%. Also, the remaining activity at 3.75 µM in assay [2] (Well no.=4987) was 100%.
Take `N=C(N)NCCC[C@H](N)C(=O)O` [L-Arginine]: the remaining activity at 1.25 µM worked out at 97.9% in assay [1] (Well no.=351) and 102% in assay [1] (Well no.=7205). Further, the results for the remaining activity at 3.75 µM in assay [2] (Well no.=351) and in assay [2] (Well no.=7205) were 98.7% and 99.2%, respectively.
On to `NC(=O)C[C@H](N)C(=O)O` [L-Asparagine], for which the remaining activity at 1.25 µM in assay [1] (Well no.=7741) was found to be 106%. Besides, in assay [2] (Well no.=7741), the remaining activity at 3.75 µM worked out at 108%.
